Reference: EP2653156A1, “Pharmaceutical emulsion composition and use thereof” (College of Pharmacy of Taif University, priority 2012, dated 2013)

Assay: Particle size distribution of insulin and/or L-arginine solutions by photon correlation spectroscopy (Malvern Zetasizer Nano-ZS)
Format: physicochemical
Conditions: for Median particle size D(i), Stability in form of particle size / Median particle size D(i): by intensity; for Median particle size D(i), Stability in form of particle size / Median particle size D(i) / Median particle size (n, 0.5) D(n), Stability in form of particle size / Median particle size (n, 0.5) D(n): unit nm; for Median particle size (n, 0.5) D(n), Stability in form of particle size / Median particle size (n, 0.5) D(n): by number
Procedure: Determination of the particle size distribution of Insulin and/or L-arginine by number as D (n, 0.5) and by intensity as D (i, 0.5) using nanosizer
The particle size distribution of two separate solutions of insulin (1 U/ml) prepared using 0.1 M HCl and L-arginine (1 mg/ml) prepared in distilled water was determined. In addition, a mixture of particles prepared by mixing insulin and L-arginine previous solutions in 1:1 v/v ratio was assessed by photon correlation spectroscopy using a Malvern Zetasizer Nano-ZS series (Malvern Instruments, UK). Collective 10 readings were performed three times on a sample at 25 °C with a detection angle of 173°. The median and standard deviations were calculated by the instrument. The viscosity was determined using a Vibro viscometer (SV-10, A&D Company, Japan) at 25°C.

[1] = Table 1 (by number), Room temp for 24 hr
[2] = Table 1 (by number), stability at 50°C for 2 hrs
[3] = Table 1 (by number), stability at 50 °C for 24 hrs
[4] = Table 2 (by intensity), Room temp for 24 hr
[5] = Table 2 (by intensity), stability at 50 °C for 2 hrs
[6] = Table 2 (by intensity), stability at 50°C for 24 hrs

N=C(N)NCCC[C@H](N)C(=O)O [L-arginine (10mg/ml), L-arginine]
Pdl [1]: 0.442 | Pdl [2]: 0.522 | Pdl [3]: 0.436 | Pdl [4]: 0.442 | Pdl [5]: 0.522 | Pdl [6]: 0.436 | Median particle size D(i), Stability in form of particle size (50 °C for 2 hrs): 174 nm | Median particle size D(i), Stability in form of particle size (50°C for 24 hrs): 126 nm | Median particle size D(i) (Room temp for 24 hr): 129 nm | Median particle size (n, 0.5) D(n), Stability in form of particle size (50°C for 2 hrs): 85.8 nm | Median particle size (n, 0.5) D(n), Stability in form of particle size (50 °C for 24 hrs): 80.6 nm | Median particle size (n, 0.5) D(n) (Room temp for 24 hr): 109 nm

N=C(N)NCCC[C@H](N)C(=O)O [L-arginine (1 mg/ml), L-arginine]
Pdl [1]: 0.474 | Pdl [2]: 0.517 | Pdl [3]: 0.31 | Pdl [4]: 0.474 | Pdl [5]: 0.517 | Pdl [6]: 0.31 | Median particle size D(i), Stability in form of particle size (50 °C for 2 hrs): 115 nm | Median particle size D(i), Stability in form of particle size (50°C for 24 hrs): 148 nm | Median particle size D(i) (Room temp for 24 hr): 122 nm | Median particle size (n, 0.5) D(n), Stability in form of particle size (50°C for 2 hrs): 102 nm | Median particle size (n, 0.5) D(n), Stability in form of particle size (50 °C for 24 hrs): 93.8 nm | Median particle size (n, 0.5) D(n) (Room temp for 24 hr): 74.8 nm | particle size (in the aqueous solution): 100-150 nm
